This note sets out measurements from patent publication US8889731B2, “Compounds, compositions and methods for repelling blood-feeding arthropods and deterring their landing and feeding” (Contech Enterprises Inc., priority 2007, dated 2014).

One test deals with Aedes aegypti. The test can be described thus: Arm-in-cage repellent/deterrent bioassay on exposed human forearm (modified WHO protocol), Aedes aegypti. In kind it is in vivo. Particulars: for pest or weed control at 0.1 mg/cm2 / pest or weed control at 0.5 mg/cm2: Aedes aegypti, topical, (C-T)/C x 100 at time of failure, read-out: Percent repellence. Here is the method: (§1) Candidate repellents and deterrents were bioassayed according to a modified protocol from the World Health Organization (1996). At least 1 hour prior to each bioassay, 75 host-seeking non blood-fed, nulliparous, 5- to 8-day-old female Aedes aegypti, Anopheles gambiae or Culex quinquefasciatus were placed into a wood-framed cage (26.5 cm on each side and 42.5 cm high) with a wooden floor, screened mesh sides and top, and a clear acrylic front fitted with a cotton stockinette sleeve (10 cm diameter). The test subject's arm was covered with an elbow-length polyethylene glove with an excised patch (16.6 cm long, 6 cm wide) to expose the ventral forearm of the test subject. Candidate deterrents were formulated in mineral (paraffin) oil and applied to the exposed forearm 5 min prior to inserting the arm into the cage. The inserted arm remained in the cage for 3 min every 30 min. Prior to each 3-min bioassay period, the hand of the untreated arm was inserted into the cage to ascertain that it received 10 bites within 30 sec as an indication of “biting pressure”.
(§2) The bioassay was terminated when the treated arm received ≧2 bites in one 3-min bioassay period or one bite in each of two consecutive bioassay periods. The time elapsed from experiment initiation to first bite was recorded as deterrent failure or complete protection time.
(§3) N,N-diethyl-m-toluamide formulated in ethanol at a corresponding dose served as a positive control, and mineral oil by itself served as a negative control. On each day, only one candidate compound was tested, ensuring that any residual material in the chamber had disappeared before the next bioassay.
To determine the repellence and deterrence of 8-allylsulfanyloctan-1-ol against Aedes aegypti, a 5%, 10% or 25% formulation of 8-allylsulfanyloctan-1-ol in mineral oil was applied in Experiments 1-3 at a dose of 1.5 mg (total composition) per cm^2 to the skin of the test person, and was bioassayed according to the protocol described under EXAMPLE 2. In Experiment 4, mineral oil by itself served as a negative control and was bioassayed at the same dose (1.5 mg per cm^2) as in Experiments 1-3. Each of Experiments 1-4 was replicated four times.
To compare the repellence and deterrence against Aedes aegypti caused by 8-allylsulfanyloctan-1-ol as a single active ingredient and by 8-allylsulfanyloctan-1-ol in combination with vanillin as a second active ingredient, we tested a 6.7% emulsion of vanillin (Experiment 14), a 6.7% emulsion of 8-allylsulfanyloctan-1-ol (Experiment 15), and a 13.4% emulsion of 8-allylsulfanyloctan-1-ol plus vanillin (1:1 ratio) (Experiment 16). 8-Allylsulfanyloctan-1-ol and vanillin were formulated in Emulsion No. 1 (see EXAMPLE 9). In each of Experiments […], test stimuli were applied at a dose of 1.5 mg per cm^2 to the skin of the test person, and were bioassayed according to the protocol described under EXAMPLE 2. In Experiment 17, Emulsion No. 1 served as a positive control and was tested at the same dose (1.5 mg per cm^2) as in Experiments 14-16.
To be able to compare the repellence and deterrence caused by N,N-diethyl-m-toluamide and by 8-allylsulfanyloctan-1-ol plus vanillin in Emulsion No. 1 (EXAMPLE 9), Experiment 26 tested a 6.7% formulation of N,N-diethyl-m-toluamide in ethanol (the best formulant for DEET) for protection from bites by Aedes egypti. In each replicate, a dose of 1.5 mg per […] was applied to the skin of the test person and bioassayed according to the protocol described under EXAMPLE 2.
To be able to further compare the deterrence caused by N,N-diethyl-m-toluamide with that caused by 8-allylsulfanyloctan-1-ol plus vanillin, Experiment 27 tested a 10.4% formulation of N,N-diethyl-m-toluamide in ethanol, and Experiment 28 tested 8-allylsulfanyloctan-1-ol (10.4%) plus vanillin (7.9%) in Emulsion No. 2 (EXAMPLE 10). […]

For another test, the system named is Culex quinquefasciatus. As to the kind of experiment: Arm-in-cage repellent/deterrent bioassay on exposed human forearm (modified WHO protocol), Culex quinquefasciatus. It is filed as in vivo. The conditions noted are these: 6.7% single active in Emulsion No. 1 (FIG. 9 legend: 2.0%), 1.5 mg per cm^2, Experiments 22, 23. As to the method: as §1, §2, §3
To determine the repellence and deterrence of 8-allylsulfanyloctan-1-ol against Culex quinquefasciatus, a 2% and 5% or a 10% formulation of 8-allylsulfanyloctan-1-ol in mineral oil was applied in Experiments 9-11 at a dose of 1.5 mg per cm^2 to the skin of the test person, and was bioassayed according to the protocol described under EXAMPLE 2. In Experiment 12, mineral oil by itself served as a negative control and was tested at the same dose (1.5 mg per cm^2) as in Experiments […]. Each of Experiments 9-11 was replicated 4 times.
To compare the repellence and deterrence against Culex quinquefasciatus caused by 8-allylsulfanyloctan-1-ol as a single active ingredient and by 8-allylsulfanyloctan-1-ol in combination with vanillin as a second active ingredient, we tested a 6.7% emulsion of vanillin (Experiment 22), a 6.7% emulsion of 8-allylsulfanyloctan-1-ol (Experiment 23) and a 13.4% emulsion of 8-allylsulfanyloctan-1-ol plus vanillin (1:1 ratio) (Experiment 24). 8-Allylsulfanyloctan-1-ol and vanillin were formulated in Emulsion No. 1 (see EXAMPLE 9). In each of Experiments […], test stimuli were applied at a dose of 1.5 mg per cm^2 to the skin of the test person, and were bioassayed according to the protocol described under EXAMPLE 2. In Experiment 25, Emulsion No. 1 served as a positive control and was tested at the same dose (1.5 mg per cm^2) as in Experiments 22-24. Each of Experiments 22-25 was replicated three times.

The test system of a further test is Anopheles gambiae. The test can be described thus: Arm-in-cage repellent/deterrent bioassay on exposed human forearm (modified WHO protocol), Anopheles gambiae. In kind it is in vivo. Here is the method: as §1, §2, §3
To determine the repellence and deterrence of 8-allylsulfanyloctan-1-ol against Anopheles gambiae, a 2%, 5% or a 10% formulation of 8-allylsulfanyloctan-1-ol in mineral oil was applied in Experiments 5-7 at a dose of 1.5 mg per cm^2 to the skin of the test person, and was bioassayed according to the protocol described under EXAMPLE 2. In Experiment 8, mineral oil by itself served as a negative control and was tested at the same dose (1.5 mg per cm^2) as in Experiments 5-7. Each of Experiments 5-8 was replicated 4 times.
To be able to compare the repellence and deterrence caused N,N-diethyl-m-toluamide (DEET), and by 8-allylsulfanyloctan-1-ol, Experiment 13 tested a 2% formulation of N,N-diethyl-m-toluamide in ethanol (the best formulant for this compound) for protection from bites by Anopheles gambiae. A dose of 1.5 mg per cm^2 was applied to the skin of the test person and bioassayed according to the protocol described under EXAMPLE 2.
To compare the repellence and deterrence against Anopheles gambiae caused by 8-allyl-sulfanyloctan-1-ol as a single active ingredient and by 8-allylsulfanyloctan-1-ol in combination with vanillin as a second active ingredient, we tested a 6.7% emulsion of vanillin (Experiment 18), a 6.7-% emulsion of 8-allylsulfanyl-octan-1-ol (Experiment 19) and a 13.4% emulsion of 8-allylsulfanyloctan-1-ol plus vanillin (1:1 ratio) (Experiment 20). 8-Allylsulfanyloctan-1-ol and vanillin were formulated in Emulsion No. 1 (see EXAMPLE 9). In each of Experiments 18-20, test stimuli were applied at a dose of 1.5 mg per cm^2 to the skin of the test person, and were bioassayed according to the protocol described under EXAMPLE 2. In Experiment 21, Emulsion No. 1 served as a positive control and was tested at the same dose (1.5 mg per cm^2) as in experiments 18-20. Each of Experiments 18-21 was replicated three times.

Test [1] has as its system male or female Aedes aegypti antennae. As to the kind of experiment: Coupled gas chromatographic-electroantennographic detection (GC-EAD) of garlic oil extract. Here is the method: FIG. 1 illustrates flame ionization detector (FID) and electroantennograhic detector (EAD: male or female Aedes aegypti antennae) responses to aliquots of the low boiling temperature portion of garlic oil extract. Chromatography: Hewlett Packard (HP) gas chromatograph equipped with a fused silica column (30 m×0.32 mm ID) coated with DB-5; injector and detector temperature: 250° C.; temperature program: 50° C.
Aliquots of garlic oil extracts were then subjected to coupled gas chromatographic-electroantennographic detection (GC-EAD) analysis. Fourteen components (10 shown in FIG. 1) elicited responses from female or male mosquito antennae. Some of these components were isolated by high-performance liquid chromatography (HPLC) for identification by nuclear magnetic resonance spectroscopy (NMR). Other components were identified (compounds 11-14 in TABLE 2) by coupled GC-mass spectrometry and by retention index calculations. […] Four of the 10 components in FIG. 1 were tentatively identified by comparing their mass spectra and retention indices with those reported in the literature (Block et al. 1998).
(§4) Components with high molecular weight (>250 daltons) are advantageous in that they: 1) dissipate slowly from treated surfaces; 2) provide long-lasting protection against mosquitoes and 3) convey little, if any, offensive smell. The relative abundance of such components was enhanced by treating garlic oil under vacuum, thus stripping away lower-boiling components. In GC-EAD analyses of the high-boiling residue, four components elicited responses from mosquito antennae.

The test system of a further test is mosquitoes. The test can be described thus: General bioassay procedure with garlic oil, its components and fractions (mosquito species not given). In kind it is in vivo. Here is the method: as §1, §2, §3
Garlic oil (Allium sativum—Mexico; Clearwater Soap Works, Box 1775 RR1, Clearwater, BC V0E 1N0, Canada) was formulated in mineral oil and tested using the general bioassay procedure described in EXAMPLE 2 at a dose of 0.1 mg per cm^2 of arm surface. It expressed repellence and deterrence for ˜30 min.
Some of the 10 components in FIG. 1 were bioassayed singly (see general bioassay procedure) and in various combinations, all of which were as deterrent to mosquitoes as garlic oil.
To determine the most deterrent component(s) in garlic oil, it was fractionated by HPLC into four fractions, each containing one or more of the EAD-active components (compounds 1-10 in FIG. 1 and 11-14 in TABLE 2). Each fraction was then bioassayed and shown to be similarly effective in repelling and deterring mosquitoes.
as §4

Where [2] appears, read: Dosage 0.1 mg/cm^2, 0 = immediate failure.

Consider `C=CCSCCCCCCC(C)O` (centres unmarked) [Compound 23, 8-allylsulfanyloctan-2-ol], for which the Failure time in the test with Aedes aegypti (Dosage 0.05 mg/cm^2) is recorded as 99 min.

Turning to `COc1cc(C=O)ccc1O` [vanillin], the “protection from bites, average duration” value in the test on Culex quinquefasciatus amounted to 88 min; in the test with Aedes aegypti (6.7% single active in Emulsion No. 1, 1.5 mg per cm^2, Experiments 14, 15), 44 min; with Anopheles gambiae (6.7% single active in Emulsion No. 1 (FIG. 8 legend: 2.0%), 1.5 mg per cm^2, Experiments 18, 19), 110 min.

On to `CCN(CC)C(=O)c1cccc(C)c1` [N,N-diethyl-m-toluamide, reference compound], for which the “protection from bites, average duration” value in the test on Aedes aegypti (6.7% formulation in ethanol, 1.5 mg per cm^2, Experiment 26) is 197 min; in the test with Aedes aegypti (10.4% formulation in ethanol, 1.5 mg per cm^2, Experiment 27) it was 231 min; with Anopheles gambiae (2% formulation in ethanol, 1.5 mg per cm^2, Experiment 13), 66 min. In the test with Anopheles gambiae (2% DEET in ethanol vs 2% 8-allylsulfanyloctan-1-ol in mineral oil), the “duration of protection relative to 2% 8-allylsulfanyloctan-1-ol (297 min)” value is “one sixth”.

`C=CCOCCCCCCCCCCOCC=C` [Compound 20, 1,10-bis-allyloxy-decane]: the pest or weed control at 0.1 mg/cm2 in the test on Aedes aegypti (Dosage 0.1 mg/cm^2) stood at 81%. Moreover, in the test on Aedes aegypti (setting [2]), the Failure time is given as 0 min. Moreover, the “had any repellence or deterrence in bioassays” value with Aedes aegypti (see TABLE 2, 0.1 mg/cm^2) is “neither”.

As for `C=CCSSCC1CCC=CS1` (centres unmarked) [Compound 13, 2-(2,3-dithia-5-hexenyl)-3,4-dihydro-2(H)-thiopyran], the “electroantennographic (EAD) response of mosquito antennae” value in test [1] is listed as “Antennal stimulatory”. In addition, the “repellent and deterrent effect in bioassays (in words)” value in the test with mosquitoes was “strong repellent and deterrent effect”.

Consider `C=CCSCCCCCCSCC=C` [Compound 18, 4,11-dithiatetradeca-1,13-diene], for which, in the test with Aedes aegypti (Dosage 0.5 mg/cm^2), the pest or weed control at 0.5 mg/cm2 was 93% and the Failure time amounted to 67 min.

Turning to `C=CCSCCCCCCCCSCC=C` [Compound 19, 4,13-dithiahexadeca-1,15-diene], in the test on Aedes aegypti (Dosage 0.1 mg/cm^2), the pest or weed control at 0.1 mg/cm2 was determined as 93%. Moreover, in the test with Aedes aegypti (Dosage 0.5 mg/cm^2), the pest or weed control at 0.5 mg/cm2 worked out at 97% and the Failure time was 102 min. For the same compound, the Failure time with Aedes aegypti (setting [2]) was determined as 0 min.

For `C=CCSSC/C=C/c1ccccc1` [Compound 16, (E)-4,5-dithia-1,7-octadien-1-yl-benzene], the pest or weed control at 0.1 mg/cm2 with Aedes aegypti (Dosage 0.1 mg/cm^2) is 89%. Also, in the test on Aedes aegypti (Dosage 0.5 mg/cm^2), the pest or weed control at 0.5 mg/cm2 stood at 92% and the Failure time worked out at 36 min. In addition, the Failure time with Aedes aegypti (setting [2]) turned out to be 35 min.

Consider `C=CCSSCC1CC=CSC1` (centres unmarked) [Compound 14, 3-(2,3-dithia-5-hexenyl)-3,4-dihydro-2(H)-thiopyran], for which the “electroantennographic (EAD) response of mosquito antennae” value in test [1] is “Antennal stimulatory”. Moreover, in the test on mosquitoes, the “repellent and deterrent effect in bioassays (in words)” value is “strong repellent and deterrent effect”.

On to `C=CCSSc1ccccc1SSCC=C` [Compound 15, 1,2-bis-(1,2-dithia-4-pentenyl)-benzene], for which, in the test on Aedes aegypti (Dosage 0.1 mg/cm^2), the pest or weed control at 0.1 mg/cm2 amounted to 92%. Also, the Failure time with Aedes aegypti (setting [2]) was 34 min.

As to `C=CCSCCCSCC=C` [Compound 17, 4,8-dithiaundeca-1,10-diene], in the test with Aedes aegypti (Dosage 0.1 mg/cm^2), the pest or weed control at 0.1 mg/cm2 stood at 89%. Also, the pest or weed control at 0.5 mg/cm2 with Aedes aegypti (Dosage 0.5 mg/cm^2) stood at 97%. The results for the Failure time with Aedes aegypti (setting [2]) and with Aedes aegypti (Dosage 0.5 mg/cm^2) were 0 min and 36 min, respectively.

Regarding `C=CCSCCCCCCCCCO` [Compound 22, 9-allylsulfanylnonan-1-ol], the Failure time in the test on Aedes aegypti (Dosage 0.05 mg/cm^2) is recorded as 33 min.
